# Assay results reported in article PMC8944662 (Proceedings of the National Academy of Sciences of the …, 2022).
# Target: NfnL (isolated large subunit of NADH-dependent ferredoxin-NADP+ oxidoreductase I) (Pyrococcus furiosus, UniProt Q8U195)
# Assay: intrinsic Trp/Tyr fluorescence quenching titration, Morrison fit
# Assay type: binding
# Sequence of NfnL (isolated large subunit of NADH-dependent ferredoxin-NADP+ oxidoreductase I) (Q8U195 whole entry): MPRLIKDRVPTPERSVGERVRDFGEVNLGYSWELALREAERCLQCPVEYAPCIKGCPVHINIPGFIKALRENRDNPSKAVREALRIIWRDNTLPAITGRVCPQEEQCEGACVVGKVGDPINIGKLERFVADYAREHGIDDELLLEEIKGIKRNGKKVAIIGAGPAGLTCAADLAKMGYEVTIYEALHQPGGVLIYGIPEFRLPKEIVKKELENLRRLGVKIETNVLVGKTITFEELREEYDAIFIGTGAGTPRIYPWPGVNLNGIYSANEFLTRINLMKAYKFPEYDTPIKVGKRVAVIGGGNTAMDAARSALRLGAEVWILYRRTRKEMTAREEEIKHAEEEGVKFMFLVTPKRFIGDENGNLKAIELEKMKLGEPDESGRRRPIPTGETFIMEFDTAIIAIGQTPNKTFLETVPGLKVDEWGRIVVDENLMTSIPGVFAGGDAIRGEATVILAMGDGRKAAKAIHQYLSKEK
row,Kd [µM],Structure (SMILES)
1,3 ± 0.4,NC(=O)C1=CN([C@@H]2O[C@H](COP(=O)(O)OP(=O)(O)OC[C@H]3O[C@@H](n4cnc5c(N)ncnc54)[C@H](OP(=O)(O)O)[C@@H]3O)[C@@H](O)[C@H]2O)C=CC1 [NADPH]
2,3 ± 0.4,NC(=O)c1ccc[n+]([C@@H]2O[C@H](COP(=O)(O)OP(=O)(O)OC[C@H]3O[C@@H](n4cnc5c(N)ncnc54)[C@H](OP(=O)(O)O)[C@@H]3O)[C@@H](O)[C@H]2O)c1 [NADP^+]
